From US9707267B2, “Beta-turn peptidomimetic cyclic compounds for treating dry eye” (Mimetogen Pharmaceuticals, Inc., priority 2008, dated 2017)

Assays:
[1] = system: cultured rat conjunctival goblet cells; test: Goblet cell glycoconjugate secretion, ELLA with UEA-1 (Example 2); type: cell-based; conditions: 2 hours; for Glycoconjugate Secretion, Mean ± sem: mean of rats; for Glycoconjugate Secretion, Mean ± SD: mean of rats/plates
Protocol: The culturing of conjunctival goblet cells from explant cultures was as previously described in Shatos, M. et al., “Isolation, Characterization, and Propagation of Rat Conjunctival Goblet Cells In Vitro,” IOVS 42:1455-1464 (2001), the entire content of which is incorporated herein by reference. The tissue was finely minced and individual pieces were anchored onto scored 6-well cultures dishes in 0.5 mL of complete RPMI-1640 (supplemented with 10% FBS, 2 mM glutamine and 100 μg/mL penicillin-streptomycin) and incubated at 37° C. in a humidified 5% CO2-atmosphere. Explant cultures were refed every 2 days. Within a few days, goblet cells migrated from the pieces and began to proliferate. After approximately one week, the tissue plugs were removed and the goblet cells were allowed to grow to confluence. Cells were passaged once by trypsinization of adherent cells with 0.05% trypsin-0.53 mM EDTA (pH 7.4), and plated in 8-well Laboratory Tek chamber slides (histochemistry) or in 96 well (proliferation), 24 well (secretion), or 6 well (western blots) culture plates with complete RPMI-1640 media.
To measure cell secretion, goblet cells were grown to confluence and then serum depleted for 2 hours prior to stimulation. Cells were incubated with compound D3 at 2, 10, and 50 μM, NGF at 0.1, 1 and 10 nM, and PMA at 0.1, 1, and 10 nM in serum-free RPMI for 2 hours. Goblet cell secretion was measured using an enzyme-linked lectin assay (ELLA). Briefly, an aliquot of the cell culture supernatant was transferred to a 96-well polystyrene microtiter plate in triplicate (Corning Life Sciences #2592, Fisher Scientific, Nepean, Ont). A dilution series of bovine submaxillary mucin (BSM) (Sigma, St. Louis, Mo.) was included on each plate as the standard (standard curve data and data showing that detection of BSM is linear between 0.003 and 0.1 μg not shown). The plates were coated by evaporation at 37° C. overnight. After, the plates were washed three times with wash buffer [PBS containing 0.3% BSA, 0.05% Tween-20] then blocked for nonspecific binding with PBS containing 3% BSA and 0.05% Tween-20 at 37° C. for 1 hour. The wells were rinsed three times in wash buffer, and then incubated in 2 μg/mL biotinylated UEA-1 diluted in wash buffer (Vector Labs, Burlingame, Calif.) at 37° C. for 1 hour. The wells were rinsed three times in wash buffer, and then incubated in 1 μg/mL HRP-conjugated neutravidin diluted in wash buffer (Pierce, Rockford, Ill.) at 37° C. for 1 hour. After the wells were rinsed three times in wash buffer, the color development was performed with TMB (Promega, Madison, Wis.) and stopped with 0.5N Sulfuric acid. The absorbance was read at 450 nm on a Benchmark Plus (Biorad). The goblet cells remaining in the culture wells were either scraped in RIPA buffer [1% TritonX-100, 20 mM Tris-HCl pH 7.5, 150 mM NaCl, 1.5 mM MgCl2, 1% Na deoxycholate, 1 mM EGTA, 1 mM EDTA, 0.1% SDS, 10% glycerol, 1 mM Na vanadate, 10 mM Na fluoride, 10 mM Na pyrophosphate, complete mini EDTA-free protease inhibitors (Roche Applied Science, Indianapolis, Ind.)] or 1M Tris-buffer (pH 7.5), collected and sonicated. The amount of protein in the cell homogenate was analyzed using the Bradford protein assay kit using a dilution series of bovine serum albumin (BSA) as the standard (BioRad, Montreal, PQ). Glycoconjugate secretion was normalized to total protein in the homogenate. Data was then expressed as fold increase above basal. […]

[2] = system: Scopolamine Induced Rat Dry Eye Model; test: Scopolamine induced rat dry eye model, corneal staining (Example 5); type: in vivo; conditions: 0.00053% topical 1× daily Days 5-21, score 0 to 4, ± SD
Protocol: Dry eye was induced using scopolamine hydrobromide (Sigma-Aldrich, St. Louis, Mo.), which was continuously and systemically delivered to the animals via an osmotic pump (2ML4 Alzet®; CedarLane, Burlington, Ontario) filled with scopolamine and implanted subcutaneously in the mid dorsal area between the scapulae. Scopolamine was delivered for a twenty-eight day period at 12.5 mg/day, which translated to 30.0±1.5 mg/kg via osmotic pump.
Treatments for G2-G6 continued daily for seventeen days (up to an including day twenty-one). Thereafter, treatments were terminated but the study continued for another week. During treatment, each animal was anesthetized in an isoflurane chamber. Once asleep, each animal received a 5 μL topical instillation of test article into the lower conjunctival sac of both eyes using a calibrated micropipette. If a clinical endpoint was also being tested, the test article was topically instilled at the end of the testing.
Immediately following TBUT assessment, the clinical signs of corneal dryness were evaluated by fluorescein staining of the cornea and was tested on day 13 (after 8 daily treatments), day 21 (after 16 daily treatments), and day 28 (after treatment was stopped for 7 days). A drop of a 0.2% sodium fluorescein solution made up in sterile saline was instilled in the upper conjunctival sac of the anaesthetized animal. The cornea was thereafter observed under blue light using a Portable Slit Lamp ophthalmoscope with blue cobalt filter (Reichert Ophthalmic Instruments, Depew, N.Y.) two to three minutes after fluorescein instillation. For each animal, the punctate fluorescein-stained area of the cornea was recorded in a masked fashion. The score of this test was graded from 0 to 4, where 0 is equal to no staining, 1 is less than 25% surface staining, 2 is 25-50% surface staining, 3 is 50-75% surface staining, and 4 is greater than 75% surface staining.

NGF: nerve growth factor (recombinant human), positive control
Glycoconjugate Secretion ([1]; 0.1 nM, Rat 1): 1.49 Fold increase above basal
Glycoconjugate Secretion ([1]; 0.1 nM, Rat 1 Plate 1): 7.6 μg glycoconjugate/mg total protein
Glycoconjugate Secretion ([1]; 0.1 nM, Rat 2): 1.20 Fold increase above basal
Glycoconjugate Secretion ([1]; 0.1 nM, Rat 2 Plate 1): 2.4 μg glycoconjugate/mg total protein
Glycoconjugate Secretion ([1]; 0.1 nM, Rat 3): 0.94 Fold increase above basal
Glycoconjugate Secretion ([1]; 0.1 nM, Rat 3 Plate 1): 4.6 μg glycoconjugate/mg total protein
Glycoconjugate Secretion ([1]; 0.1 nM, Rat 4): 1.24 Fold increase above basal
Glycoconjugate Secretion ([1]; 0.1 nM, Rat 4 Plate 1): 10.6 μg glycoconjugate/mg total protein
Glycoconjugate Secretion, Mean ± sem ([1]; 0.1 nM): 1.22 ± 0.11 Fold increase above basal
Glycoconjugate Secretion, Mean ± SD ([1]; 0.1 nM): 6.3 ± 3.6 μg glycoconjugate/mg total protein
Glycoconjugate Secretion ([1]; 1 nM, Rat 1): 2.67 Fold increase above basal
Glycoconjugate Secretion ([1]; 1 nM, Rat 1 Plate 1): 13.6 μg glycoconjugate/mg total protein
Glycoconjugate Secretion ([1]; 1 nM, Rat 2): 0.85 Fold increase above basal
Glycoconjugate Secretion ([1]; 1 nM, Rat 2 Plate 1): 1.7 μg glycoconjugate/mg total protein
Glycoconjugate Secretion ([1]; 1 nM, Rat 3): 1.00 Fold increase above basal
Glycoconjugate Secretion ([1]; 1 nM, Rat 3 Plate 1): 4.9 μg glycoconjugate/mg total protein
Glycoconjugate Secretion ([1]; 1 nM, Rat 4): 1.26 Fold increase above basal
Glycoconjugate Secretion ([1]; 1 nM, Rat 4 Plate 1): 10.8 μg glycoconjugate/mg total protein
Glycoconjugate Secretion, Mean ± sem ([1]; 1 nM): 1.44 ± 0.42 Fold increase above basal
Glycoconjugate Secretion, Mean ± SD ([1]; 1 nM): 7.8 ± 5.4 μg glycoconjugate/mg total protein
Glycoconjugate Secretion ([1]; 10 nM, Rat 1): 1.58 Fold increase above basal
Glycoconjugate Secretion ([1]; 10 nM, Rat 1 Plate 1): 10.4 μg glycoconjugate/mg total protein
Glycoconjugate Secretion ([1]; 10 nM, Rat 1 Plate 2): 4.4 μg glycoconjugate/mg total protein
Glycoconjugate Secretion ([1]; 10 nM, Rat 2): 1.49 Fold increase above basal
Glycoconjugate Secretion ([1]; 10 nM, Rat 2 Plate 1): 3.6 μg glycoconjugate/mg total protein
Glycoconjugate Secretion ([1]; 10 nM, Rat 2 Plate 2): 2.7 μg glycoconjugate/mg total protein
Glycoconjugate Secretion ([1]; 10 nM, Rat 3): 1.98 Fold increase above basal
Glycoconjugate Secretion ([1]; 10 nM, Rat 3 Plate 1): 9.7 μg glycoconjugate/mg total protein
Glycoconjugate Secretion ([1]; 10 nM, Rat 4): 1.19 Fold increase above basal
Glycoconjugate Secretion ([1]; 10 nM, Rat 4 Plate 1): 10.2 μg glycoconjugate/mg total protein
Glycoconjugate Secretion, Mean ± sem ([1]; 10 nM): 1.55±0.18 Fold increase above basal
Glycoconjugate Secretion, Mean ± SD ([1]; 10 nM): 6.8 ± 3.6 μg glycoconjugate/mg total protein
Corneal Staining ([2]; Day 13): 2.6 ± 0.5 Score
Corneal Staining ([2]; Day 21): 2.3 ± 0.6 Score
Corneal Staining ([2]; Day 28 (7 days after treatment stopped)): 2.2 ± 0.3 Score
